Measured values reported in patent US6469141B1, “D1-like dopamine receptor activity modifying protein” (Medical College of Georgia Research Institute Inc., priority 1998, dated 2002).

Legend:
[1] = test system: endogenous P2Y purinergic receptors; assay: Fura-2 Ca++ imaging, P2Y receptor-stimulated Ca++i release in D1 HEK293 cells; type: cell-based, human
Method: Drugs were prepared in HBS and manually applied.
Changes in Ca^++i levels were measured using ratiofluorometric imaging following bath application of ligand. Application of DA or 10:M […] produced no detectable response in untransfected D1 HEK293 cells, or cells expressing either EGFP or EGFP-Calcyon. In vivo, DA is considered primarily to be a neuromodulator. Therefore, to test whether Calcyon plays a role in the D1 receptor's ability to modulate other stimuli, we applied agonists of endogenous GPCRs prior to stimulating D1 receptors. […].

protein kinase C (PKC) = assay: 32P-orthophosphate in vivo labeling and GFP mab immunoprecipitation of EGFP-Calcyon; type: cell-based, human; details: 100 nM PMA, 0.5 h
Method: Approximately 40 h after transfection, pEGFP or pEGFP-Calcyon transfected D1 HEK293 cells were washed and placed in HBS (phosphate-free media) for 1.5 h prior to addition of [^32P] orthophosphate (135 μCi/ml). 2 h later, cells were treated with 100 nM PMA (Phorbol 12-Myristate 13-Acetate) in HBS for 0.5 h at 37°. Cells were then washed once in cold PBS and solubilized in mild lysis solution (Cytosignal, Irvine, Calif.) containing protease inhibitor cocktail (Boehringer Manheim) and phosphatase inhibitors, 50 μM NaF and 5 μM EGTA. Lysates were centrifuged for 5 min at 14,000 rpm and the supernatant was incubated at RT. for 1 h with mouse anti-GFP mab (Clontech, Palo Alto, Calif.) (diluted 1:100), followed by 0.02 volume of protein A/G agarose slurry for 30 min. The resin was washed twice with mild lysis solution, and adsorbed proteins eluted in SDS PAGE loading buffer (Laemmli, U.K., Nature 227:680-5 (1970)). Samples were analyzed by SDS-PAGE, using a 15% gel (Bio-Rad). The gel was dried and visualized using a Phosphorimager SF (Molecular Dynamics). […]
The Calcyon sequence contains two consensus protein kinase C (PKC) phosphorylation sites within its predicted cytoplasmic domain. […] GFP mab immunoprecipated a ^32P-labeled protein from pEGFP-Calcyon transfected cells with size equal to that detected by Calcyon antibodies. […]

hD1 receptors [2] = biological target: T1, hD1 receptors (Homo sapiens, UniProt P21728); assay: cAMP assay in transfected D1 HEK293 cells; type: cell-based
T1 construct: pLXSN (Clontech) plasmid containing full-length human D1 (Zhou et al., Nature 347:76-80 (1990)); expressed in transfected cells
Method: Following centrifugation to pellet proteins, cAMP levels in supernatant were determined by Direct cAMP Enzyme Immunoassay Kit (Assay Designs, Inc.) according to the supplier's protocol. […] Results (pmol cAMP/mg protein) are reported as average of three independent trans fection experiments.
It was determined whether Calcyon influenced D1 receptor coupling to the cAMP second messenger system in D1 HEK293 cells transfcctcd with expression plasmids encoding either enhanced green fluorescent protein (EGFP), or Calcyon tagged at its N-terminus by EGFP.
(§1) pEGFP-Calcyon was created by inserting a 0.9 kb Eco RI-Xho I fragment encoding full-length Calcyon into pEGFP-C3 (Clontech). pEGFP-C3 and pEGFP-Calcyon plasmid DNAs were transiently transfected into HEK293 and D1 HEK293 cell lines using Effectene™ (Qiagen) according to manufacturer's recommendations. 2.5×10^5 cells were seeded in 6-well plates, and transfected with 0.4:g plasmid DNA/well for Ca^++ imaging, cAMP, and immunoprecipitation assays.

hD1 receptors [3] = biological target: T1, hD1 receptors; assay: Fura-2 Ca++ imaging of D1 receptor-stimulated Ca++i release in D1 HEK293 cells; type: cell-based; details: for effect of PKC inhibitor on SKF81297-induced Ca++ mobilization: EGFP-Calcyon expressing D1 HEK293 cells, HCl
Method: For Ca^++ imaging, cells were rinsed with HBS (150 mM NaCl, 10 mM NaHEPES, 10 mM glucose, 2.5 mM KCI, 4 mM CaCl2 and 2 mM MgCl2, pH 7.4) and then loaded with 5 μM Fura-2 AM (Molecular Probes) in HBS at RT. After 20 min, cells were washed three times with HBS. Assays were performed at RT in 1.5 ml of HBS. Drugs were prepared in HBS and manually applied. […] Images were collected with a CCD camera connected to a Silicon Graphics workstation, and analyzed with Inovision-Ratiotool 4.3.5. Transfected cells were identified by illumination at 490 nm, and selected as areas for analysis. […] Fluorescence emission at 510 nm was monitored for each excitation wavelength via the CCD camera at 10 s intervals. Average pixel intensities within 6-8 selected areas (each area corresponded to single transfected cell) for both wavelengths at each time point were digitized and stored on the computer.
Changes in Ca^++i levels were measured using ratiofluorometric imaging following bath application of ligand. […] In vivo, DA is considered primarily to be a neuromodulator. Therefore, to test whether Calcyon plays a role in the D1 receptor's ability to modulate other stimuli, we applied agonists of endogenous GPCRs prior to stimulating D1 receptors.
as §1

[4] = biological target: T2, GSTD1 (C-terminal 81 residues of hD1 receptor) (Homo sapiens, UniProt P21728); assay: S-agarose pull-down assay with GSTD1 fusion protein; type: binding; details: immunoblot with D1 receptor antibodies
T2 construct: C-terminal 81 amino acids of the hD1 receptor (residues 365-446); made in house; host or cells: S-Calcyon: BL21(DE3) E. coli
T2 sequence (P21728 365-446): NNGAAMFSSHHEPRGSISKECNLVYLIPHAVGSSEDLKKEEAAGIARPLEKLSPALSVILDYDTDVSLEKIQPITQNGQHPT
T2 sequence (Q9NYX4 93-217 partner): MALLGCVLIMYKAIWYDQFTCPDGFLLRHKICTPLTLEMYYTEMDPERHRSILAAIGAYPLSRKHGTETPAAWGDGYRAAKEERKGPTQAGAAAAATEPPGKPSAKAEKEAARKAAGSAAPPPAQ
Excerpt: For pull-down assays, a 550 bp Nco I-Bgl II fragment from pACT-Calcyon was subcloned into pET30a (Novagen, Madison, Wis.) to produce the S-Calcyon fusion protein containing residues 93-217 of the predicted Calcyon protein as well as an N-terminal tag composed of the 15 residue S peptide of ribonuclease S (Richards, F. M., et al., The Enzymes. ed.: Boyer, P. D., Academic Press, N.Y., pp. 647-806 (1971)). The S-β-galactosidase fusion protein was composed of bacterial β-galactosidase protein tagged at its N-terminus with the S peptide. Fusion proteins were induced in BL2I(DE3) E. coli with IPTG, and coupled to S-agarose resin (Novagen, Madison, Wis.) by incubating soluble fractions of bacterial lysates with resin for 1 h at RT Following incubation, unbound proteins were eliminated by washing the resin three times in 50 volumes of 25 mM HEPES (pH 7.4), 50 mM NaCl. Interaction assays were performed with GSTD1 purified as described (Bergson, C., et al., J. Neurosci. 15:7821-36 (1995)) or solubilized lysates of D1 HEK293 cells in 25 mM HEPES (pH 7.4), 50 mM NaCl, 10% glycerol, 1% bovine serum albumin containing 0.5% NP-40. Peptidel 421-435 ([…]) (SEQ ID No. 3) and Peptide2 ([…]) (SEQ ID No. 4) were synthesized using an Applied Biosystems 430A Peptide Synthesizer using the FastMoc procedures and reagents supplied by Perkin-Elmer, Applied Biosystems division. […]

D1 receptor = D1 receptor (Homo sapiens, UniProt P21728); assay: D1 receptor response to dopamine in presence of P24; details: effect of P24
D1 DA receptors = biological target: T3, D1 DA receptors (Homo sapiens, UniProt P21728); assay: co-immunoprecipitation with GFP mab from transfected D1-HEK293 cells; type: binding
T3 construct: pLXSN (Clontech) plasmid containing full-length human D1 (Zhou et al., Nature 347:76-80 (1990)); expressed in transfected cells; host or cells: D1-HEK293 cells, transiently transfected with pEGFP-P24
Excerpt: A series of experiments were then undertaken to functionally characterize the interaction between P24 and D1 receptor proteins. D1-HEK293 cells, a HEK293 cell line that expresses hD1 receptors, and pEGFP-P24 expression plasmid were used for these studies. pEGFP-P24 encodes P24 protein tagged at its N-terminus by enhanced green fluorescent protein (EGFP). The N-terminal EGFP tag allowed testing to determine whether P24 directly associates with D1 DA receptors when coexpressed in mammalian cells in a “pull-down” assay. D1 receptors co-immunoprecipitated with EGFP-P24 fusion protein transiently expressed in transfected D1-HEK293 cells, and were “pulled down” by GFP mab.

T1 sequence (P21728 whole entry): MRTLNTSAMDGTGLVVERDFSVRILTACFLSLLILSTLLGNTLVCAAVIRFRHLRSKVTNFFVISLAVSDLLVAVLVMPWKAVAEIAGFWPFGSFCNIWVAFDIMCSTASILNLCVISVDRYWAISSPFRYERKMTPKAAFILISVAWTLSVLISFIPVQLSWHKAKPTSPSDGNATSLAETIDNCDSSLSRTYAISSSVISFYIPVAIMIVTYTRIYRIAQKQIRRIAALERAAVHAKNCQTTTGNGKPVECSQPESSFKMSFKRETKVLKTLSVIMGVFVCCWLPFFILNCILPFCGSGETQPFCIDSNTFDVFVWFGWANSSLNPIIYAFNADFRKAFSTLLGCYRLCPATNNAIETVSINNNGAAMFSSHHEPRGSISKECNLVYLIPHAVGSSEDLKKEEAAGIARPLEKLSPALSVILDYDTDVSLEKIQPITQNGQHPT
Chain of D1 receptor (P21728 whole entry): as above
T3 sequence (P21728 whole entry): as above

Molecule: Nc1ncnc2c1ncn2[C@@H]1O[C@H](COP(=O)(O)OP(=O)(O)OP(=O)(O)O)[C@@H](O)[C@H]1O [ATP]
- Ca++i response ([1]; D1 HEK293 cells): produced a rise in Ca^++i
- duration of P2Y receptor Ca++i response ([1]; EGFP expressing cells): 300 to 400 s
- duration of P2Y receptor Ca++i response ([1]; EGFP-Calcyon expressing cells, following application of BisI): 300 to 400 s

Molecule: CCCCCCCCCCCCCC(=O)O[C@@H]1[C@@H](C)[C@@]2(O)[C@@H](C=C(CO)C[C@]3(O)C(=O)C(C)=C[C@@H]23)[C@@H]2C(C)(C)[C@]12OC(C)=O [PMA, phorbol 12-myristate 13-acetate]
- 32P label incorporated into immunoprecipitated EGFP-Calcyon, treated vs untreated cells (protein kinase C (PKC)): approximately five times more label incorporated

Molecule: CN(C)CCCn1cc(C2=C(c3c[nH]c4ccccc34)C(=O)NC2=O)c2ccccc21.Cl [bisindolylmaleimide I HCl]
- cAMP levels stimulated by ATP and SKF81297, BisI-treated compared to untreated cells (hD1 receptors [2]): similar
- effect of PKC inhibitor on SKF81297-induced Ca++ mobilization (hD1 receptors [3]): considerably attenuated
- effect of PKC inhibitor on SKF81297-induced Ca++ mobilization (hD1 receptors [3]; listed as bisindolylmalemide): inhibits Calcyon-enabled D1 stimulated Cai^++ release
- effect of PKC inhibitor on D1 receptor-stimulated Ca++i release (hD1 receptors [3]; EGFP-Calcyon expressing cells treated with carbachol): reduced D1 receptor-stimulated Ca^++i release

Molecule: SVILDYDTDVSLEKI (listed as Homo sapiens) [Pep421-435]
- block of interaction between GSTD1 and S-Calcyon by peptide [4]: prevented detection of the immunoreactive GSTD1 band

B1: Calcyon: 217 residue single transmembrane protein encoded by K 37 cDNA (SEQ ID No. 1) that interacts with the hD1 DA receptor (protein)
chain: MVKLGCSFSGKPGKDPGDQDGAAMDSVPLISPLDISQLQPPLPDQVVIKTQTEYQLSSPDQQNFPDLEGQRLNCSHPEEGRRLPTARMIAFAMALLGCVLIMYKAIWYDQFTCPDGFLLRHKICTPLTLEMYYTEMDPERHRSILAAIGAYPLSRKHGTETPAAWGDGYRAAKEERKGPTQAGAAAAATEPPGKPSAKAEKEAARKAAGSAAPPPAQ
modifications: D1-Like dopamine receptor activity modifying protein
- effect of Calcyon expression on D1 receptor-stimulated cAMP (hD1 receptors [2]; DA-stimulated cAMP, EGFP vs EGFP-Calcyon cells): does not alter D1 receptor activation of cAMP-dependent signaling pathways
- threshold of D1 receptor response to dopamine (D1 receptor): lowers the threshold of D1 receptor response to dopamine (DA) by an order of magnitude
- effect of Calcyon expression on D1 receptor-stimulated Ca++i mobilization (hD1 receptors [3]; EGFP-Calcyon vs EGFP expressing cells, D1 agonist after ATP): enhance the ability of D1 receptors to mobilize Ca^++i

B2: EGFP-P24: P24 protein tagged at its N-terminus by enhanced green fluorescent protein (protein)
chain: B1 chain
modifications: left off: large carriers
- co-immunoprecipitation of D1 receptors (D1 DA receptors): co-immunoprecipitated
